{
  "source": "paper PMC7367873",
  "about": "“Dissecting the sequence determinants for dephosphorylation by the catalytic subunits of phosphatases PP1 and PP2A” (Nature Communications, 2020)",
  "tested_on": "PP1c/PP2Ac",
  "assay": "PP1c versus PP2Ac specificity of p-sites (pairwise comparison / hierarchical clustering of phosphoproteomic data)",
  "assay_type": "biochemical, human",
  "details": "for share of substrates specific to the phosphatase: hierarchical clustering; for number of specific sequences (cluster size): hierarchical clustering after one-way ANOVA",
  "description": "For phosphoproteomics, HeLa Kyoto cells were incubated with 20 nM Calyculin A (CST, #9902) for 10–15 min. This time point was determined empirically to yield maximal phosphatase inhibition without cells showing pleiotropic effects. Subsequently, cells were placed on ice and washed twice with cold PBS and scraped in lysis buffer (100 mM NaCl, 10 mM Tris, 0.1% IGEPAL, 1 mM EDTA, 1 mM EGTA, 20 nM Calyculin A, 1x cOmplete Mini protease inhibitor cocktail (Sigma), 1 mM DTT, 1 mM MnCl2, pH 7.5). After 10 pushes through an injection needle (21 G, BD), lysate was cleared from the insoluble fraction by centrifugation (10 min, 10^4 rcf, 4 °C). Protein concentration was then determined by a Bradford Assay and equal amounts of 1 mg total protein were incubated with recombinant PP1c/PP2Ac or buffer at a final phosphatase concentration of 1 µM in a total volume of 200 µL for 1 h at 30 °C. Lysates were then immediately placed on ice. PhosStop […] (Roche) was added and proteins were denatured by adding urea to a final concentration of 8 M taking into account the volume increase. Samples were then snap-frozen in liquid nitrogen for storage and subsequent MS analysis.\nDownstream analysis of the phosphoproteomic datasets was carried out using the software tool Perseus[66]. For analysis of phosphoproteomic experiments, row-wise, median-normalized data (see previous section) was linked to known regulatory sites by PhosphoSitePlus entries and categorical columns for treatments were assigned. Reverse peptides and potential contaminants were filtered. Next, categorical columns for biological functions and treatments were assigned. TMT reporter intensities were then transformed into log2. At this point, all data were then filtered for valid values in all three replicates of at least one condition. Next, the distribution of TMT reporter intensities was assessed visually by plotting count-based histogramms and in a multiscatter plot using the Pearson correlation as an estimate of reproducibility. Next, NA (=not available: missing) values were replaced by imputation from a normal distribution (width 0.3, down-shift 1.8, per column). The data quality was routinely assessed by two means: First, by plotting a histogram of peptide length vs. counts and visualization of imputed values to confirm a normal distribution of the data, and secondly by principal component analysis (default settings in Perseus) to judge the sample grouping.\nFor hierarchical clustering, the results of the one-way ANOVA were processed for two more steps in Perseus: first data were filtered for significant hits from the one-way ANOVA and then subjected to z-transformation. Hierarchical clustering images were produced using Euclidean distance, 300 clusters and 10 rounds of iteration.\nAlso all further data processing for protein enrichment and extraction of protein sequences in positions −5 to +5 relative to the p-sites of interest for subsequent motif analysis was performed using RStudio with R v3.3.2 using the packages tidyverse and BioStrings. In order to study the sequence specificity of PP1c and PP2Ac on the protein level, position specific probability matrices, representing the relative occurrence for each amino acid surrounding pSer/pThr were produced by extracting sequence information in positions −5 to +5 for all PP1c/PP2Ac-sensitive class I p-sites. Next, the count for each amino acid in each position was divided by the total of all counts for a certain position, resulting in relative abundance. […] Importantly, amino acids with less than 25 counts in PP1-sensitive/-insensitive or PP2A-sensitive/insensitive comparisons were excluded. For calculating a heat map directly comparing PP1c against PP2Ac, these fold changes were divided. […] Obtained p-values were adjusted for multiple testing using the method of Benjamini and Hochberg.\nPP1c/PP2Ac-sensitive class I sites were divided into three classes as illustrated for PP1c in Supplementary Fig. 4c. […]",
  "data": [
    {"substance": "PP1c: recombinant catalytic subunit of PP1", "values": [
      {"measurement": "share of substrates specific to the phosphatase", "value": 28, "unit": "%"},
      {"measurement": "number of specific sequences (cluster size)", "value": 777, "unit": "sequences"}
    ]},
    {"substance": "PP2Ac: His-tagged recombinant PPP2CA ΔL309, purchased from Cayman Chemical", "values": [
      {"measurement": "share of substrates specific to the phosphatase", "value": 24, "unit": "%"},
      {"measurement": "number of specific sequences (cluster size)", "value": 663, "unit": "sequences"}
    ]}
  ]
}
